This passage reports IC50 and Blutdrucksenkung results from patent publication EP0222702A2, “Basic carbonyl derivatives” (CIBA-GEIGY AG, priority 1985, dated 1987).

pIC50: −log10 of the molar value.

In experiment [1] the target is T1, Serotonin-(5HT2)-Rezeptoren (Rattus norvegicus, UniProt P14842).
T1 construct: from tissue; host or cells: rat brain membranes
Description: Displacement of 3H-ketanserin binding from rat brain membranes. More on the design: species or system Ratten. The settings on record: read-out: Verdrängung der Bindung von 3H-Ketanserin, Konzentration (ICso). The text has this: (§1) Ferner lässt sich die Bindung der neuen Verbindungen oder deren Salze an Dihydropyridin-Rezeptoren mittels Verdrängung der Bindung von ^3H-Nitrendipin an Membranen von Meerschweichenherzen in in-vitro-Versuchen [Erne, P. et al,: Biochem. Biophys. Res. Commm., 118, 842-847 (1984)] z.B. unter Verwendung von 2,6-Dimethyl-4-(3-nitrophenyl)-1,4-dihydropyridin-3-carbonsäuremethylester-5-carbonsäure-[2-[4-(p-fluorobenzoyl)-piperidin-1-yl]-1-phenyl] -äthyl ester (Diastereomerengemisch) bei einer Konzentration (IC50) von etwa 0,2 nMol/Liter nachweisen. Ebenso kann die Bindung der erfindungsgemässen Verbindungen an ai-Rezeptoren durch Verdrängung von ^3H-Prazosin aus seinen Bindungsstellen an der Ratten-Cerebralcortex-Membran gemäss der Methodik von P. Greenengass et al., Eur. J. Pharmacol. 55, 323, (1979), bei etwa 300 nMol/Liter in vitro signifikant nachgewiesen werden. Ausserdem lässt sich die Bindung der neuen Verbindungen oder deren Salze an Serotonin-(5HT2)-Rezeptoren mittels Verdrängung der Bindung von ^3H-Ketanserin an Membranen des Rattenhirns [Leysen, J.E. et al.: Molecul. Pharmacol. 21, 301-304, (1982)] z.B. unter Verwendung von 2,6-Dimethyl-4-(3-nitrophenyl)-1,4-dihydropyridin-3-carbonsäuremethylester-5-carbonsäure-[2-[4-(p-fluorbenzoyl)-piperidin-1-yl]-1-phenyl]-äthylester (Diastereomerengemisch) bei einer Konzentration (ICso) von etwa 6,0 nMol/Liter zeigen.

In experiment [2] the test system is Noradrenalin-induzierten Vasokonstriktion, isoliert perfundierten Mesenterialgefässen der Ratte. Description: Inhibition of noradrenaline-induced vasoconstriction in isolated perfused rat mesenteric vessels. The settings on record: in vitro, read-out: Hemmung der Noradrenalin-induzierten Vasokonstriktion (ICso). The text has this: Die Verbindungen der Formel 1 und deren Salze besitzen wertvolle pharmakologische Eigenschaften, vor allem im cardiovasculären Bereich. Sie wirken als Calcium-Antagonisten und besitzen a-Rezeptoren blockierende sowie Serotonin-antagonistische Eigenschaften, wie sich z.B. in in-vitro-Versuchen an isoliert perfundierten Mesenterialgefässen der Ratte [McGregor, D.: J.Physiol. 177, 21-30, (1965)] als Hemmung der Kalium-,Noradrenalin-und Serotonin-induzierten Vasokonstriktion, beispielsweise unter Verwendung von 2,6-Dimethyl-4-(3-nitrophenyl)-1,4-dihydropyridin-3-carbonsäurmethylester-5-carbonsäure-[2-[4-(p-fluorben- zoyl)-piperidin-1-yl] -1-phenyl]-äthylester (Diastereomerengemisch) bei einer Konzentration von ca. 5 nMol/Liter (IC50) für die Hemmung der Kalium-induzierten Vasokonstriktion, von ca. 4 nMol/Liter (ICso) für die Hemmung der Noradrenalin-induzierten Vasokonstriktion und von ca. 80 nMol/Liter für die Hemmung der Serotonin-induzierten Vasokonstriktion zeigen lässt.

In experiment [3] the test system is renal hypertensiven Ratte. Nature of the experiment: Blood pressure lowering in the renal hypertensive rat. It counts as in vivo. The following applies: 2 hours after p.o. application of ca. 2,0 mg/kg. The protocol:
Die neuen Verbindungen oder deren Salze bewirken ferner eine Hemmung der durch Angiotensin 11, durch elektrische Stimulation oder durch Phenylephrin oder Noradrenalin induzierten pressorischen Effekte an der "pithed rat" [J.S. Gillespie: Br.J.Pharmacoi. 30, 78 (1967)] bei einer Dosis von etwa 2 mg/kg, und eine Hemmung der durch Serotonin induzierten pressorischen Effekte bei einer Dosis von etwa 6 mg/kg. Die neuen Verbindungen oder deren Salze wirken ausserdem antihypertensiv, was sich z.B. durch Senkung des Blutdrucks an der renal hypertensiven Ratte [Goldblatt et al.: J.exp.med. 59, 347 (1934)] zeigen lässt. So kann z.B. 2 Stunden nach p.o-Applikation von ca. 2,0 mg/kg 2,6-Dimethyl-4-(3-nitrophenyl)-1,4-dihydropyridin-3-carbonsäuremethylester-5-carbonsäure-[2-[4-(p-fluorbenzoyl)-piperidin-1-yl]-1-phenyl]-äthylester (Diastereomerengemisch) an der renal hypertensiven Ratte eine Blutdrucksenkung von ca. -70 mm Hg beobachtet werden.

In experiment [4] the target is T2, Dihydropyridin-Rezeptoren (Cavia porcellus, UniProt O35505).
T2 construct: from tissue; host or cells: guinea pig heart membranes
T2 sequence (O35505 whole entry): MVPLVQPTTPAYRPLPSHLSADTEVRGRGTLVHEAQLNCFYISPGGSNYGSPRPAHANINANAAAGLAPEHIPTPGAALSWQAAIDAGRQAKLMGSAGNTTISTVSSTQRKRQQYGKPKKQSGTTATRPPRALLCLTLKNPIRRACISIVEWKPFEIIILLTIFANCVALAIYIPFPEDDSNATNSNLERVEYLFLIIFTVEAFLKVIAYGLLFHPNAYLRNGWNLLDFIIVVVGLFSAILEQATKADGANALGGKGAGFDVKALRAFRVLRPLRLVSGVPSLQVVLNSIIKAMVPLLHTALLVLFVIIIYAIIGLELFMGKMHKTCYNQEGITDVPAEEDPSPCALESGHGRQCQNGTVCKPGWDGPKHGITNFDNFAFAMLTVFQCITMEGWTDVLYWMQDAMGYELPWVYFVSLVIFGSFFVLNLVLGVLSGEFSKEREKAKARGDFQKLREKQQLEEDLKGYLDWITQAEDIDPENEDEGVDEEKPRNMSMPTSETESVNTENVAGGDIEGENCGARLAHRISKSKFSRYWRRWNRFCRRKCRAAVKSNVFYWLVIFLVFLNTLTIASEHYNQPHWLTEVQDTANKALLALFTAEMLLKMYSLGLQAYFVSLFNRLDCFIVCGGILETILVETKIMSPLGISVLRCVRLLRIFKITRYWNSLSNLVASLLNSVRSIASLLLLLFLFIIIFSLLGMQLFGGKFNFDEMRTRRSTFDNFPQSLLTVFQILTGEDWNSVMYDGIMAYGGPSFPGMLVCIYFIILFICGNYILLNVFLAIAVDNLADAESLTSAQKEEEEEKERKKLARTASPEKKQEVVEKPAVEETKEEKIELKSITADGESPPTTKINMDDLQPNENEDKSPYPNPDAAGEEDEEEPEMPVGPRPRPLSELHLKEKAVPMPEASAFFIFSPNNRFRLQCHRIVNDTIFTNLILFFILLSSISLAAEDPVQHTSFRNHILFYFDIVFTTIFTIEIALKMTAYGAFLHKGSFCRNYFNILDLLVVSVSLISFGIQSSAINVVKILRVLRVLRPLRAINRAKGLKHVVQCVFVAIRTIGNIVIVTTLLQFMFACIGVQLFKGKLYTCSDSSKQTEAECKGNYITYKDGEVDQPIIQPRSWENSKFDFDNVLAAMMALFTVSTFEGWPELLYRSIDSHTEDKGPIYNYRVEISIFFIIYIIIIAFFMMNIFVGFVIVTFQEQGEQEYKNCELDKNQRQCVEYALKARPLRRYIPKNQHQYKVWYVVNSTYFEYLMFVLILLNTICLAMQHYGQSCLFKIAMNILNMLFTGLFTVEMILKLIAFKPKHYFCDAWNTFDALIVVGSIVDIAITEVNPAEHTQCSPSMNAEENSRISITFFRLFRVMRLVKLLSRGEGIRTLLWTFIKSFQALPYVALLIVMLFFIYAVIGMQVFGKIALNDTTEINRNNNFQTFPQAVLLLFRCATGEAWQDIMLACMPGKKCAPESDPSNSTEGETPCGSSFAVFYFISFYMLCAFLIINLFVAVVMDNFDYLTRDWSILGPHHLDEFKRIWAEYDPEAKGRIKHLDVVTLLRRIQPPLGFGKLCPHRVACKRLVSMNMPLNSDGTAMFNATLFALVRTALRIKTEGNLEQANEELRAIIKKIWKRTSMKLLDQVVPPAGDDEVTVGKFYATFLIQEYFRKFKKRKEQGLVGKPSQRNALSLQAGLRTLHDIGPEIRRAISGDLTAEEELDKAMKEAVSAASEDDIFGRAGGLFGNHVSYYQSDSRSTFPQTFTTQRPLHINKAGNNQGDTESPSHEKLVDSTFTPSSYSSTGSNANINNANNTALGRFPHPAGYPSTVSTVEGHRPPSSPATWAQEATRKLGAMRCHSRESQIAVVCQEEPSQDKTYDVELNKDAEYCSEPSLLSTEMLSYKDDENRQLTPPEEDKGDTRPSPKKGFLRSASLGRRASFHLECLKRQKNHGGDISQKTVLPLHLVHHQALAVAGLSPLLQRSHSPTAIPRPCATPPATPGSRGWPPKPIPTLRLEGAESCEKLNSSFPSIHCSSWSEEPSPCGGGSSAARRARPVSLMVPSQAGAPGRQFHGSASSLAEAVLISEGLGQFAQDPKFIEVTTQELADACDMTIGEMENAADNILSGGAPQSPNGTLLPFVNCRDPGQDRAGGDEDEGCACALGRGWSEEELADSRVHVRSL
Nature of the experiment: Displacement of 3H-nitrendipine binding from guinea pig heart membranes. Further details: species or system Meerschweichen. The following applies: membranes of guinea pig hearts, in vitro; read-out: Verdrängung der Bindung von 3H-Nitrendipin, Konzentration (IC50).
Excerpt: as §1
In general terms: In a radioligand displacement assay an active substance lowers the binding of a labelled ligand.

T1 sequence (P14842 whole entry): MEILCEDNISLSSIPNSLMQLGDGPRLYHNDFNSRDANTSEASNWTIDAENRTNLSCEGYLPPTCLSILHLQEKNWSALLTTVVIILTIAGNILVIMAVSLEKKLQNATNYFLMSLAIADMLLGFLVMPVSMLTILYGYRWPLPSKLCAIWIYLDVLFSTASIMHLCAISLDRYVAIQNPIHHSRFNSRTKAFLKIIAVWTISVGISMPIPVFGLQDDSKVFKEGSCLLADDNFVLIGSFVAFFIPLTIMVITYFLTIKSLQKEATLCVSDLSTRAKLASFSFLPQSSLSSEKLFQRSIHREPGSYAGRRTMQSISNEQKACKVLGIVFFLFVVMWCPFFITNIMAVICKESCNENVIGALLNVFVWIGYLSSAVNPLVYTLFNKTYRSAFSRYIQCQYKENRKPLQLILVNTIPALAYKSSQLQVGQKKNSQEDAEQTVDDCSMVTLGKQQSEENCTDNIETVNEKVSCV

Regarding `COC(=O)C1=C(C)NC(C)=C(C(=O)OC(CN2CCC(C(=O)c3ccc(F)cc3)CC2)c2ccccc2)C1c1cccc([N+](=O)[O-])c1` (stereo not shown) [Beispiel 1, 2,6-Dimethyl-4-(3-nitrophenyl)-1,4-dihydropyridin-3-carbonsäuremethylester-5-carbonsäure-[2-[4-(p-fluorbenzoyl)-piperidin-1-yl]-1-phenyl]-äthylester], the results for the pIC50 in experiment [1], in experiment [2] and in experiment [4] were around 8.22, around 8.40 and around 9.70, respectively. Also, the Blutdrucksenkung entry in experiment [3] was “ca. -70 mm Hg”.
